{"source": "patent US20210253575A1", "about": "“PYRROLIDINE AMINE COMPOUNDS FOR THE TREATMENT OF AUTOIMMUNE DISEASE” (Hoffmann-La Roche Inc., priority 2018, published 2021)", "note": "pIC50: −log10 of the molar value."}
{"biological_target": "T1, human TLR9 (Homo sapiens, UniProt Q9NR96)", "T1 sequence (Q9NR96 26-1032)": "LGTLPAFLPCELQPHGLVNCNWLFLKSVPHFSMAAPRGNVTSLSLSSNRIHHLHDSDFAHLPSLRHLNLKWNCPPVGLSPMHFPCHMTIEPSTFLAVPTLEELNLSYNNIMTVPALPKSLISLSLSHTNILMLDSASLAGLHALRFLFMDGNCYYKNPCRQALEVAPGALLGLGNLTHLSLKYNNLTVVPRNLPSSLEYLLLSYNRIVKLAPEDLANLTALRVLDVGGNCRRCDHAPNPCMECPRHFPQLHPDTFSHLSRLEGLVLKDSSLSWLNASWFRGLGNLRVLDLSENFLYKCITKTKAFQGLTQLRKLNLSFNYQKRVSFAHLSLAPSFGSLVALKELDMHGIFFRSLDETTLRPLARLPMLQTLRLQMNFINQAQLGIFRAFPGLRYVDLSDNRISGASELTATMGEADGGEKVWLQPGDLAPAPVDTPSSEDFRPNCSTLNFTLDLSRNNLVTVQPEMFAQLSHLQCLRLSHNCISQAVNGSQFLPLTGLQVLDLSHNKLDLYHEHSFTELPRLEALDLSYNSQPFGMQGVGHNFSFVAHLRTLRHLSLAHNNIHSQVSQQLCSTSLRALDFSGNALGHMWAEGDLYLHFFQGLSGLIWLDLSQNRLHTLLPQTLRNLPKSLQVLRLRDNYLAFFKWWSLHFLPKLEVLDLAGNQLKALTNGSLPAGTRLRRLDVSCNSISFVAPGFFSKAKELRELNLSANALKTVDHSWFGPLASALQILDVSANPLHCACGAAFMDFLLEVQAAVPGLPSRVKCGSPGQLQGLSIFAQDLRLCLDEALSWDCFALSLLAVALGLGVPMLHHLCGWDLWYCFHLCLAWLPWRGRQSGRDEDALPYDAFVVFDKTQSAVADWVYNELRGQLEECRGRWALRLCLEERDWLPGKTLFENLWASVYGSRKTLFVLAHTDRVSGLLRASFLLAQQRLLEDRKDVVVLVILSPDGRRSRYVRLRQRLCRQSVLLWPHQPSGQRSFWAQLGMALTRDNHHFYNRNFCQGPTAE", "experiment": "HEK293-Blue-hTLR-9 cells assay (SEAP reporter, ODN2006 stimulation)", "type": "cell-based", "settings": "HEK293-Blue-hTLR9 cells, ODN2006 ligand, 20 hrs incubation", "summary_of_the_method": "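HEK293-Blue-hTLR9 cells with NF-κB/AP-1-driven SEAP reporter, stimulated with ODN2006 in presence of serially diluted compounds (1% DMSO) for 20 h at 37 °C. Supernatant SEAP measured with QUANTI-Blue after 2 h at 37 °C, absorbance 620–655 nm.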"}
{"smiles": "CC1(CN)CCCN(C[C@H]2CN(c3ccc(C#N)c4nccnc34)C[C@@H]2C(F)(F)F)C1", "note": "(stereo partly drawn) [Example 75, 8-[(3S,4R)-3-[[3-(aminomethyl)-3-methyl-1-piperidyl]methyl]-4-(trifluoromethyl)pyrrolidin-1-yl]quinoxaline-5-carbonitrile]", "pIC50": 6.12}
{"smiles": "N#Cc1ccc(N2C[C@H](CN3CC4CNCC4C3)[C@@H](C(F)(F)F)C2)c2nccnc12", "note": "(stereo partly drawn) [Example 76, 8-[(3S,4R)-3-(2,3,3a,4,6,6a-hexahydro-1H-pyrrolo[3,4-c]pyrrol-5-ylmethyl)-4-(trifluoromethyl)pyrrolidin-1-yl]quinoxaline-5-carbonitrile]", "pIC50": 6.31}
{"smiles": "N#Cc1ccc(N2C[C@H](CN3CC4CCC3CN4)[C@@H](C(F)(F)F)C2)c2nccnc12", "note": "(stereo partly drawn) [Example 77, 8-[(3S,4R)-3-(2,5-diazabicyclo[2.2.2]octan-2-ylmethyl)-4-(trifluoromethyl)pyrrolidin-1-yl]quinoxaline-5-carbonitrile]", "pIC50": 5.63}
{"smiles": "N#Cc1ccc(N2C[C@H](CN3CCCC(F)(CN)C3)[C@@H](C(F)(F)F)C2)c2nccnc12", "note": "(stereo partly drawn) [Example 78, 8-[(3S,4R)-3-[[3-(aminomethyl)-3-fluoro-1-piperidyl]methyl]-4-(trifluoromethyl)pyrrolidin-1-yl]quinoxaline-5-carbonitrile]", "pIC50": 5.72}
{"smiles": "N#Cc1ccc(N2C[C@H](CN3CCC(CCN)CC3)[C@@H](C(F)(F)F)C2)c2nccnc12", "note": "[Example 79, 8-[(3S,4R)-3-[[4-(2-aminoethyl)-1-piperidyl]methyl]-4-(trifluoromethyl)pyrrolidin-1-yl]quinoxaline-5-carbonitrile]", "pIC50": 6.61}
{"smiles": "CN(C)C1CCN(C[C@H]2CN(c3ccc(C#N)c4nccnc34)C[C@@H]2C(F)(F)F)CC1", "note": "[Example 80, 8-[(3S,4R)-3-[[4-(dimethylamino)-1-piperidyl]methyl]-4-(trifluoromethyl)pyrrolidin-1-yl]quinoxaline-5-carbonitrile]", "pIC50": 6.15}
{"smiles": "CNCC1CCN(C[C@H]2CN(c3ccc(C#N)c4nccnc34)C[C@@H]2C(F)(F)F)CC1", "note": "[Example 81, 8-[(3S,4R)-3-[[4-(methylaminomethyl)-1-piperidyl]methyl]-4-(trifluoromethyl)pyrrolidin-1-yl]quinoxaline-5-carbonitrile]", "pIC50": 6.66}
{"smiles": "CN(C)C[C@@H]1CCN(C[C@H]2CN(c3ccc(C#N)c4nccnc34)C[C@@H]2C(F)(F)F)C1", "note": "[Example 82, 8-[(3S,4R)-3-[[(3S)-3-[(dimethylamino)methyl]pyrrolidin-1-yl]methyl]-4-(trifluoromethyl)pyrrolidin-1-yl]quinoxaline-5-carbonitrile]", "pIC50": 6.52}
